In PMC5551175, “Trypanosoma brucei Inhibition by Essential Oils from Medicinal and Aromatic Plants Traditionally Used in Cameroon (Azadirachta indica, Aframomum melegueta, Aframomum daniellii, Clausena anisata, Dichrostachys cinerea and Echinops giganteus)” (International Journal of Environmental Research and Public …, 2017):
Like-named read-outs stand apart in the source and are kept apart here.

Tests used:
[1] = test system: T. brucei TC221 bloodstream forms; experiment: T. brucei growth inhibition assay (resazurin); assay type: cell-based; details: Trypanosoma brucei, 72 h, 48 h + 24 h with resazurine
Experimental: (§1) The cell culture conditions and the growth inhibition assay on T. brucei and Balb/3T3 cells were performed as described before. T. brucei TC221 bloodstream forms and mouse embryonic fibroblast Balb/3T3 cells (ATCC no CCL-163) were cultivated in vented plastic flasks at 37 °C with 5% CO2. For T. brucei, the growth medium was HMI-9 [45] supplemented with 10% (v/v) fetal bovine serum (Gibco, Waltham, MA, USA), whereas the Balb/3T3 cells were grown in Dulbecco’s Modified Eagle’s Medium (Sigma-Aldrich) supplemented with 10% (v/v) heat-inactivated fetal bovine serum, glutamine (0.584 g/L), and 10 mL/L 100× penicillin-streptomycin (Gibco). The essential oils or pure compounds identified from these oils were dissolved in dimethyl sulfoxide (DMSO) and serially diluted with growth medium in white 96-well microtiter plates. 20,000 bloodstream forms of T. brucei or Balb/3T3 cells were added to each well in a final volume of 200 μL. In the case of mammalian cells, we also tested 2000 cells/well with similar results. […] Cell viability was verified by a drug-free control for each compound. The plates were incubated for 48 h in the CO2 incubator; then 20 μL of 0.5 mM resazurine (Sigma Aldrich) was added to each well, and the plates were incubated for an additional 24 h before the fluorescence was measured with an Infinite M200 microplate reader (Tecan group, Ltd., Männedorf, Switzerland) equipped with 540 and 590 nm excitation and emission filters. The half maximal inhibitory concentration (IC50) values were calculated on a log inhibitor versus the response curves by non-linear regression using the GraphPad prism 5.04 software (GraphPad Software, Inc., La Jolla, CA, USA).

Balb/3T3 cells = experiment: Mammalian cell growth inhibition assay (resazurin); assay type: cell-based, mouse; details: for CC50: BALB/3T3, 72 h, mouse embryonic fibroblast cells, 48 h + 24 h with resazurine, read-out: IC50 Balb/3T3; for Selectivity Index (SI): Balb/3T3 versus T. b. brucei TC221
Experimental: as §1

[2] = read-out: IC50 T. b. brucei (TC221)
[3] = µM value in parentheses, read-out: IC50 T. b. brucei (TC221), value in brackets (converted)

IC50 [1, 2] [mg/L]	IC50 [1, 3] [µM]	Compound	CC50 (Balb/3T3 cells) [mg/L]	Selectivity Index (SI) (Balb/3T3 cells)
0.0286 ± 0.0008	0.022	Cc1ccc(C(=O)Nc2ccc(S(=O)(=O)O)c3cc(S(=O)(=O)O)cc(S(=O)(=O)O)c23)cc1NC(=O)c1cccc(NC(=O)Nc2cccc(C(=O)Nc3cc(C(=O)Nc4ccc(S(=O)(=O)O)c5cc(S(=O)(=O)O)cc(S(=O)(=O)O)c45)ccc3C)c2)c1 [Suramin, reference compound]		
5.96 ± 1.3	43.8	C=C1CCC2(C(C)C)CC12 (stereo not shown) [Sabinene]	> 100	>16.7
11.4 ± 2.6	83.7	C=C1CCC2CC1C2(C)C (stereo not drawn) [β-Pinene]	> 100	>8.77
> 100		CC1=CCC(O)(C(C)C)CC1 (stereo not shown) [Terpinen-4-ol]		
> 100		CC12CCC(CC1)C(C)(C)O2 [1,8-Cineole]		
8.25 ± 1.3	40.4	C=C1CC/C=C(\C)CC[C@@H]2[C@@H]1CC2(C)C [(E)-Caryophyllene]	> 100	>12.1
